In ChEMBL document CHEMBL2157967, “Chemotherapy of leishmaniasis. Part XI: synthesis and bioevaluation of novel isoxazole containing heteroretinoid and its amide derivatives” (2012):
The source made the active and inactive calls. The calls are words filed in the database; no cut-off is given here.

tested on: Leishmania donovani; test: Antileishmanial activity against Leishmania donovani MHOM/IN/80/Dd8 amastigotes infected in golden hamster assessed as inhibition of parasite growth at 50 mg/kg, ip for 5 days post infection measured on day 7 by Giemsa staining; format: functional; conditions: not given

Molecule | growth inhibition (GI)
CCOC(=O)C(=O)CC(=O)/C=C/C1C(C)=CCCC1(C)C (stereo not given) | inactive
CC1=CCCC(C)(C)C1/C=C/c1cc(C(=O)N2CCOCC2)no1 (stereo not given) | inactive
CC1=CCCC(C)(C)C1/C=C/c1cc(C(=O)N2CCN(c3ccccc3)CC2)no1 (stereo not given) | inactive
Sodium stibogluconate | 89%

same assay, conditions: Leishmania donovani, MHOM/IN/80/Dd8, ip, route intraperitoneal, read-out: GI

Molecule | inhibition in vivo at 50 mg/kg [%]
CCOC(=O)c1cc(/C=C/C2C(C)=CCCC2(C)C)on1 (stereo not given) | 76
CC1=CCCC(C)(C)C1/C=C/c1cc(C(=O)NN)no1 (stereo not given) | 50
COc1ccc(NC(=O)c2cc(/C=C/C3C(C)=CCCC3(C)C)on2)cc1 (stereo not given) | 58
CC1=CCCC(C)(C)C1/C=C/c1cc(C(=O)Nc2ccccc2)no1 (stereo not given) | 74
CC1=CCCC(C)(C)C1/C=C/c1cc(C(=O)O)no1 (stereo not given) | 45
NC[C@@H]1O[C@H](O[C@H]2[C@@H](O)[C@H](O[C@@H]3[C@@H](O)[C@H](N)C[C@H](N)[C@H]3O[C@H]3O[C@H](CO)[C@@H](O)[C@H](O)[C@H]3N)O[C@@H]2CO)[C@H](N)[C@@H](O)[C@@H]1O [PAROMOMYCIN] | 46.7
CC1=CCCC(C)(C)C1/C=C/c1cc(C(=O)NC2CCCCC2)no1 (stereo not given) | 70
CC1=CCCC(C)(C)C1/C=C/c1cc(C(=O)Nc2ccc(Cl)cc2)no1 (stereo not given) | 63
CC1=CCCC(C)(C)C1/C=C/c1cc(C(=O)NO)no1 (stereo not given) | 65

same assay, conditions: route intraperitoneal

Molecule | growth inhibition (GI) [%]
CC1=CCCC(C)(C)C1/C=C/c1cc(C(=O)[N-]N)no1.[Na+] (stereo not given) | 70
CC1=CCCC(C)(C)C1/C=C/c1cc(C(=O)N[O-])no1.[Na+] (stereo not given) | 71
